{"source": "patent US10517889B2", "about": "“Modulators of SMAD7 expression” (Ionis Pharmaceuticals, Inc., priority 2017, dated 2019)", "key": {"[1]": {"experiment": "Oligonucleotide concentration in liver and colon by LC-MS/MS after subcutaneous administration in CD-1 mice (Example 6)", "type": "in vivo", "details": "50 mg/kg subcutaneously twice a week for 7 weeks, 48 hours after the last dose", "experimental": "Groups of 8-9 week old male CD-1 mice were injected subcutaneously twice a week for 7 weeks with 50 mg/kg of Ionis oligonucleotides (100 mg/kg/week dose). Each group contained 4 mice. One group of male CD-1 mice was injected subcutaneously twice a week for 7 weeks with PBS. Plasma was collected for analysis on day 28.\nOligonucleotide concentrations in the liver and colon were analyzed using LC-MS/MS method."}, "[2]": {"experiment": "Hematology assays after oral gavage in CD-1 mice (Example 7)", "type": "in vivo", "parameters": "RBC: unit not given here", "details": "500 mg/kg oral gavage once daily for 4 weeks", "experimental": "(§1) Groups of 7-8 week old male CD-1 mice were given an oral gavage dose once daily for 4 weeks of 500 mg/kg of Ionis SMAD7 oligonucleotides. Each group contained 8 mice. One group of male CD-1 mice was administered saline by oral gavage daily.\nBlood obtained from all mouse groups was measured by an ADVIA2120i hematology analyzer (Siemens, USA) for measurements of the various blood cells, as well as other hematology markers. None of the Ionis SMAD7 oligonucleotides caused changes in the levels of any of the hematology markers outside the expected range for antisense oligonucleotides."}, "[3]": {"experiment": "Hematology assays after subcutaneous administration in beagle dogs (Example 8)", "type": "in vivo", "details": "30 mg/kg subcutaneous days 1, 3, 5, 8, 15, 22, 29", "experimental": "(§2) There were 4 animals per group.\nBlood samples were collected from the cephalic vein or saphenous vein of each animal. About 0.5 mL of blood samples was put into tubes containing the potassium salt of EDTA. Blood obtained from all dog groups was measured using an ADVIA2120i hematology analyzer for measurements of the various blood cells, as well as other hematology markers."}, "[4]": {"experiment": "Blood chemistry markers after oral gavage in CD-1 mice (Example 7)", "type": "in vivo", "details": "500 mg/kg oral gavage once daily for 4 weeks, day 30", "experimental": "The objective of this study was to evaluate the tolerability and pharmacodynamics of select Ionis human SMAD7 antisense oligonucleotides in CD-1 mice following 4 weeks of treatment. The mice were administered oligonucleotides by oral gavage.\nas §1\nLevels of transaminases, albumin, and BUN were measured using a Toshiba 200FR NEO chemistry analyzer (Toshiba Co., Japan)."}, "[5]": {"system": "dog SMAD7 mRNA", "experiment": "Pharmacology: dog SMAD7 mRNA expression in liver, kidney, duodenum, ileum and colon after subcutaneous administration in beagle dogs (Example 8)", "type": "in vivo", "details": "30 mg/kg subcutaneous, necropsy, normalized to HPRT1", "experimental": "as §2\nThe pharmacological activity of the Ionis oligonucleotides in dogs was assessed by measuring dog SMAD7 mRNA expression in liver, kidney, duodenum, ileum, and colon at necropsy. All the human ASOs used are complementary to dog SMAD7 mRNA.\nTissue samples from all dogs were analyzed for SMAD7 mRNA expression using the primer probe set RTS34649 (forward sequence […], designated SEQ ID NO: 2740; reverse sequence […], designated SEQ ID NO: 2741; probe sequence […], designated SEQ ID NO: 2742), which was normalized to mRNA levels of the housekeeping gene, HPRT1. One-way ANOVA with Dunnet's comparison test was used for statistical analysis."}, "[6]": {"experiment": "Oligonucleotide concentration in tissues by LC-MS/MS after subcutaneous administration in beagle dogs (Example 8)", "type": "in vivo", "details": "30 mg/kg subcutaneous, 48 hours after the last dose", "experimental": "as §2\nOligonucleotide concentrations of both ION 830025 and ION 798781 were detected in various tissues by LC-MS/MS analysis. The results are presented below, expressed as μg/g tissue. The data was collected 48 hours after the last dose."}, "[7]": {"system": "human peripheral blood mononuclear cells (PBMCs)", "experiment": "Human PBMC activation assay, cytokine levels (IL-10, IL-6, MCP-1, TNF-α) in supernatant after 24 hours (Example 9)", "details": "human PBMC supernatant after 24 hours", "description": "Ionis SMAD7 oligonucleotides were tested in an in vitro assay for potential immunostimulatory properties in an in vitro human peripheral blood mononuclear cell (PBMC) activation assay.\nBlood samples were collected from healthy human volunteers in heparinized vials and mixed well. Human PBMCs were isolated by gradient centrifugation using Ficoll-Histopaque. The cells were washed, counted and resuspended in medium. The PBMCs were plated in a 24-well culture plate and various concentrations of oligonucleotides were added to the media. An oligonucleotide historically known to promote an inflammatory response was used as a positive control, whereas an oligonucleotide known not to be pro-inflammatory was used as a negative control. […] The supernatants were collected after 24 hours and analyzed for cytokine levels using MSD platform."}}}
{"substance": "830025 (antisense TTTGTAAATCGAAAGC; 3-10-3 cEt gapmer, further chemistry not given here) [compound 830025]", "values": [{"measurement": "Oligonucleotide concentration, Colon", "setting": "[1]", "result": 39, "unit": "μg/g tissue"}, {"measurement": "Oligonucleotide concentration, Liver", "setting": "[1]", "result": 77, "unit": "μg/g tissue"}, {"measurement": "Basophils", "setting": "[2]", "result": "0.01 10^3/μL"}, {"measurement": "Eosinophils", "setting": "[2]", "result": "0.08 10^3/μL"}, {"measurement": "Hematocrit", "setting": "[2]", "result": 52.4, "unit": "%"}, {"measurement": "Hemoglobin", "setting": "[2]", "result": 15.0, "unit": "g/dL"}, {"measurement": "Lymphocytes", "setting": "[2]", "result": 77.6, "unit": "%"}, {"measurement": "MCH", "setting": "[2]", "result": 14.9, "unit": "pg"}, {"measurement": "MCHC", "setting": "[2]", "result": 28.5, "unit": "g/dL"}, {"measurement": "MCV", "setting": "[2]", "result": 52.3, "unit": "fL"}, {"measurement": "Monocytes", "setting": "[2]", "result": "0.12 10^3/μL"}, {"measurement": "Neutrophils", "setting": "[2]", "result": 17.5, "unit": "%"}, {"measurement": "RBC", "setting": "[2]", "result": 10.1}, {"measurement": "Reticulocytes", "setting": "[2]", "result": 3.2, "unit": "%"}, {"measurement": "WBC", "setting": "[2]", "result": "4.7 10^3/μL"}, {"measurement": "platelets", "setting": "[2]", "result": "1236 10^3/μL"}, {"measurement": "Basophils", "setting": "[3]", "result": 0.3, "unit": "%"}, {"measurement": "Eosinophils", "setting": "[3]", "result": 2.4, "unit": "%"}, {"measurement": "Hematocrit", "setting": "[3]", "result": 43, "unit": "%"}, {"measurement": "Hemoglobin", "setting": "[3]", "result": 13.9, "unit": "g/dL"}, {"measurement": "Lymphocytes", "setting": "[3]", "result": 34, "unit": "%"}, {"measurement": "MCH", "setting": "[3]", "result": 21.7, "unit": "pg"}, {"measurement": "MCHC", "setting": "[3]", "result": 32.5, "unit": "g/dL"}, {"measurement": "MCV", "setting": "[3]", "result": 67, "unit": "fL"}, {"measurement": "Monocytes", "setting": "[3]", "result": 8.2, "unit": "%"}, {"measurement": "Neutrophils", "setting": "[3]", "result": 55, "unit": "%"}, {"measurement": "PLT", "setting": "[3]", "result": "250 ^3/μL"}, {"measurement": "RBC", "setting": "[3]", "result": "6.4 ^6/L"}, {"measurement": "Reticulocytes", "setting": "[3]", "result": 1.2, "unit": "%"}, {"measurement": "WBC", "setting": "[3]", "result": "5.7 ^3/μL"}, {"measurement": "ALT", "setting": "[4]", "result": 34, "unit": "IU/L"}, {"measurement": "AST", "setting": "[4]", "result": 65, "unit": "IU/L"}, {"measurement": "Albumin", "setting": "[4]", "result": 3.3, "unit": "g/dL"}, {"measurement": "BUN", "setting": "[4]", "result": 21, "unit": "mg/dL"}, {"measurement": "Bilirubin", "setting": "[4]", "result": 0.2, "unit": "mg/dL"}, {"measurement": "% inhibition of SMAD7 mRNA expression (compared to control), Distal colon", "setting": "[5]; distal colon", "result": 3, "unit": "%"}, {"measurement": "% inhibition of SMAD7 mRNA expression (compared to control), Duodenum", "setting": "[5]; duodenum", "result": 7, "unit": "%"}, {"measurement": "% inhibition of SMAD7 mRNA expression (compared to control), Ileum", "setting": "[5]; ileum", "result": 9, "unit": "%"}, {"measurement": "% inhibition of Smad7 mRNA expression (compared to control), Kidney", "setting": "[5]; kidney", "result": 25, "unit": "%"}, {"measurement": "% inhibition of Smad7 mRNA expression (compared to control), Liver", "setting": "[5]; liver", "result": 0, "unit": "%"}, {"measurement": "% inhibition of SMAD7 mRNA expression (compared to control), Proximal colon", "setting": "[5]; proximal colon", "result": 24, "unit": "%"}, {"measurement": "Full length oligonucleotide, Distal colon", "setting": "[6]; distal colon", "result": 49, "unit": "µg/g"}, {"measurement": "Full length oligonucleotide, Duodenum", "setting": "[6]; duodenum", "result": 97, "unit": "µg/g"}, {"measurement": "Full length oligonucleotide, Ileum", "setting": "[6]; ileum", "result": 41, "unit": "µg/g"}, {"measurement": "Full length oligonucleotide, Kidney", "setting": "[6]; kidney", "result": 1470, "unit": "µg/g"}, {"measurement": "Full length oligonucleotide, Liver", "setting": "[6]; liver", "result": 466, "unit": "µg/g"}, {"measurement": "Full length oligonucleotide, Proximal colon", "setting": "[6]; proximal colon", "result": 31, "unit": "µg/g"}, {"measurement": "Levels of IL-6", "setting": "[7]; 0.0128 μM oligonucleotide", "result": 3.1, "unit": "pg/mL"}, {"measurement": "Levels of IL-10", "setting": "[7]; 0.0128 μM oligonucleotide", "result": 1.5, "unit": "pg/mL"}, {"measurement": "Levels of MCP-1", "setting": "[7]; 0.0128 μM oligonucleotide", "result": 309.7, "unit": "pg/mL"}, {"measurement": "Levels of TNF-α", "setting": "[7]; 0.0128 μM oligonucleotide", "result": 2.8, "unit": "pg/mL"}, {"measurement": "Levels of IL-6", "setting": "[7]; 0.064 μM oligonucleotide", "result": 3.8, "unit": "pg/mL"}, {"measurement": "Levels of IL-10", "setting": "[7]; 0.064 μM oligonucleotide", "result": 1.9, "unit": "pg/mL"}, {"measurement": "Levels of MCP-1", "setting": "[7]; 0.064 μM oligonucleotide", "result": 353.9, "unit": "pg/mL"}, {"measurement": "Levels of TNF-α", "setting": "[7]; 0.064 μM oligonucleotide", "result": 2.9, "unit": "pg/mL"}, {"measurement": "Levels of IL-6", "setting": "[7]; 0.32 μM oligonucleotide", "result": 5.0, "unit": "pg/mL"}, {"measurement": "Levels of IL-10", "setting": "[7]; 0.32 μM oligonucleotide", "result": 2.6, "unit": "pg/mL"}, {"measurement": "Levels of MCP-1", "setting": "[7]; 0.32 μM oligonucleotide", "result": 387.7, "unit": "pg/mL"}, {"measurement": "Levels of TNF-α", "setting": "[7]; 0.32 μM oligonucleotide", "result": 3.9, "unit": "pg/mL"}, {"measurement": "Levels of IL-6", "setting": "[7]; 1.6 μM oligonucleotide", "result": 12.9, "unit": "pg/mL"}, {"measurement": "Levels of IL-10", "setting": "[7]; 1.6 μM oligonucleotide", "result": 3.6, "unit": "pg/mL"}, {"measurement": "Levels of MCP-1", "setting": "[7]; 1.6 μM oligonucleotide", "result": 554.3, "unit": "pg/mL"}, {"measurement": "Levels of TNF-α", "setting": "[7]; 1.6 μM oligonucleotide", "result": 5.4, "unit": "pg/mL"}, {"measurement": "Levels of IL-6", "setting": "[7]; 8 μM oligonucleotide", "result": 17.8, "unit": "pg/mL"}, {"measurement": "Levels of IL-10", "setting": "[7]; 8 μM oligonucleotide", "result": 2.9, "unit": "pg/mL"}, {"measurement": "Levels of MCP-1", "setting": "[7]; 8 μM oligonucleotide", "result": 750.0, "unit": "pg/mL"}, {"measurement": "Levels of TNF-α", "setting": "[7]; 8 μM oligonucleotide", "result": 6.7, "unit": "pg/mL"}, {"measurement": "Levels of IL-6", "setting": "[7]; 40 μM oligonucleotide", "result": 19.5, "unit": "pg/mL"}, {"measurement": "Levels of IL-10", "setting": "[7]; 40 μM oligonucleotide", "result": 1.4, "unit": "pg/mL"}, {"measurement": "Levels of MCP-1", "setting": "[7]; 40 μM oligonucleotide", "result": 580.8, "unit": "pg/mL"}, {"measurement": "Levels of TNF-α", "setting": "[7]; 40 μM oligonucleotide", "result": 7.6, "unit": "pg/mL"}, {"measurement": "Levels of IL-6", "setting": "[7]; 200 μM oligonucleotide", "result": 30.6, "unit": "pg/mL"}, {"measurement": "Levels of IL-10", "setting": "[7]; 200 μM oligonucleotide", "result": 0.7, "unit": "pg/mL"}, {"measurement": "Levels of MCP-1", "setting": "[7]; 200 μM oligonucleotide", "result": 52.7, "unit": "pg/mL"}, {"measurement": "Levels of TNF-α", "setting": "[7]; 200 μM oligonucleotide", "result": 4.9, "unit": "pg/mL"}]}
